Test results taken from paper PMC11647725, “Discovery of 4-(5-Membered)Heteroarylether-6-methylpicolinamide Negative Allosteric Modulators of Metabotropic Glutamate Receptor Subtype 5” (ACS Medicinal Chemistry Letters, 2024).

Assays:
[1] = target: Tachykinin NK1 (Homo sapiens, UniProt P25103); assay: Lead Profiling Screen, Eurofins Panlabs; type: binding; conditions: Tachykinin NK1, hum, read-out: % inh at 10 μM
[2] = In vivo rat pharmacokinetics; design: species or system Sprague–Dawley rat

Sequence of Tachykinin NK1 (P25103 whole entry): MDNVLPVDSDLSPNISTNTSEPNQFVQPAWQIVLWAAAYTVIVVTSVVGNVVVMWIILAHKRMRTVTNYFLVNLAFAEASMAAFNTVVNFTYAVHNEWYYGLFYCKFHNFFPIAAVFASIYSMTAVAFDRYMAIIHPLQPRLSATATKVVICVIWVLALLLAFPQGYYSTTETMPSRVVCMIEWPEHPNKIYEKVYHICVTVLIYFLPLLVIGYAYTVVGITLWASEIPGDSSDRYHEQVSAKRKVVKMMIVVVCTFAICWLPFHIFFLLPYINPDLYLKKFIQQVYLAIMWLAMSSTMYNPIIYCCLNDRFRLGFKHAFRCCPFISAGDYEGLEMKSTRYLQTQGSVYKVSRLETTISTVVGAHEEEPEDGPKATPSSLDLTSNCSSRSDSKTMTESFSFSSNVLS

**Q.** For `Cc1cc(Oc2cnn(C)c2)cc(C(=O)Nc2ccc(F)cn2)n1` [22iA], which inhibition at 10 µM [1] is on record?
**A.** Its inhibition at 10 µM is 15%.

**Q.** And the CLp ([2]; Rat (SD), IV 1.0 mg/kg)?
**A.** The CLp was 41 mL/min/kg.

**Q.** What about the MRT ([2]; Rat (SD), IV 1.0 mg/kg) of the same compound?
**A.** The MRT was 50.4 min.

**Q.** And the Vss ([2]; Rat (SD), IV 1.0 mg/kg)?
**A.** The Vss was 2.0 L/kg.

**Q.** What about the t1/2 ([2]; Rat (SD), IV 1.0 mg/kg) of the same compound?
**A.** The t1/2 was 44.4 min.

**Q.** What about the “AUC0-∞” value ([2]; Rat (SD), PO 10.0 mg/kg) of the same compound?
**A.** Its value is 1320 ng·h/mL.

**Q.** And the Cmax ([2]; Rat (SD), PO 10.0 mg/kg)?
**A.** Its Cmax is 402 ng/mL.

**Q.** What about the Tmax ([2]; Rat (SD), PO 10.0 mg/kg) of the same compound?
**A.** The Tmax was 1.95 h.

**Q.** And the “%F” value ([2]; Rat (SD), PO 10.0 mg/kg, oral bioavailability)?
**A.** The value was 43%.

**Q.** What about the half-life ([2]; Sprague-Dawley, rat, plasma, intravenous, 1 mg/kg, rats, value as given in running text, read-out: elimination t1/2) of the same compound?
**A.** The half-life was roughly 45 min.

**Q.** What about the bioavailability ([2]; Sprague-Dawley, rat, plasma, po, 10 mg/kg) of the same compound?
**A.** Its bioavailability is 40%.
